From patent US5641775A, “3-phenylureido-1,5-benzodiazepine-diones useful as gastrin or antagonists” (Glaxo SpA, priority 1993, dated 1997)

Legend:
CCK-B receptor = biological target: T1, CCK-B receptor (Cavia porcellus, UniProt H0VZC5); assay: CCK receptor binding, CCK-B receptor (guinea pig cortex assay), Dal Forno procedure; conditions: read-out: pKi CCK-B (converted)
T1 construct: CCK-B receptor (guinea pig cortex assay); from tissue; host or cells: guinea pig cortex
Procedure: (§1) The greater affinity of the compounds of the invention for the CCK-B receptor over the CCK-A receptor has also been established using the CCK receptor binding assays described by G Dal Fornos et al., J. Pharmcol. Exp & Ther. 261, 1056-1063, 1992.
(§2) The binding affinity of the compounds of the invention for the CCK-A receptor (Pancreas Assay) and CCK-B receptor (guinea pig cortex assay) was determined using the procedure of G Dal Forno et al J. Pharmacol. Exp & Ther. 261-1056-1063. The pKi values determined with respresentative compounds of invention were as follows: […]

CCK-A receptor = assay: CCK receptor binding, CCK-A receptor (Pancreas Assay), Dal Forno procedure
Procedure: as §1, §2

T1 sequence (H0VZC5 entry or part of it): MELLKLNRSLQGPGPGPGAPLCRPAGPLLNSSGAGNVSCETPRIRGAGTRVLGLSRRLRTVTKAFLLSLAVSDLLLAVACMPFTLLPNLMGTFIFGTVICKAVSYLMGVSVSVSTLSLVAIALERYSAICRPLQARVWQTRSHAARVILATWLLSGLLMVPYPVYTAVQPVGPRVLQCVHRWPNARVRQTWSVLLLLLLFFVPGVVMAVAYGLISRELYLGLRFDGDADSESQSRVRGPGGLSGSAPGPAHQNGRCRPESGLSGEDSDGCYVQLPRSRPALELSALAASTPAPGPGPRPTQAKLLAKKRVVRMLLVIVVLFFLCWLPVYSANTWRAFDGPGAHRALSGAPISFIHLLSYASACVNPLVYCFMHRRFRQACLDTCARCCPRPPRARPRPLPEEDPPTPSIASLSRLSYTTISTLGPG

Row | Structure (SMILES) | Ki (CCK-B receptor) [nM] | pKi CCK-A (CCK-A receptor)
1 | O=C(Nc1cccc(-c2nn[nH]n2)c1)NC1C(=O)N(CCC2CCCC2)c2ccccc2N(c2ccccc2F)C1=O (single isomer, unassigned; (+)) [Example 4, (+)-N-[1-(Cyclopentylethyl)-2,4-dioxo-5-(2-fluorophenyl)-2,3,4,5-tetrahydro-1H-benzodiazepin-3-yl]-N'-(3-tetrazolyl)phenylurea] | 0.105 | 6.63
2 | O=C(Nc1cccc(-c2nn[nH]n2)c1)NC1C(=O)N(CCC2CCCC2)c2ccccc2N(c2ccccc2F)C1=O (single isomer, unassigned; (-)) [Example 5, (-)-N-[1-(Cyclopentylethyl)-2,4-dioxo-5-(2-fluorophenyl)-2,3,4,5-tetrahydro-1H-benzodiazepin-3-yl]-N'-(3-tetrazolyl)phenylurea] | 0.269 | 6.51
3 | CC(C)(C)CCN1C(=O)C(NC(=O)Nc2cccc(-c3nnn[nH]3)c2)C(=O)N(c2ccccc2)c2ccccc21 (stereo not drawn) [Example 3, N-[1-(3,3-Dimethylbutyl)-2,4-dioxo-5-phenyl-2,3,4,5-tetrahydro-1H-1,5-benzodiazepine-3-yl]-N'[3-(5-tetrazolyl)-phenyl]urea] | 0.288 | 7.64
